Measured values as given in ChEMBL document CHEMBL3045669, “Evaluation of crude toxin and metabolite produced by Helminthosporium gramineum Rabenh for the control of rice sheath blight in paddy fields” (2007).

How the values were obtained:
Assay type in all cases: functional
Details in all cases: read-out: GI
[1] = test system: Rhizoctonia solani; assay: Growth inhibition of Rhizoctonia solani AG-1 IA at 25 ug/ml after 24 hr
[2] = test system: Rhizoctonia solani; assay: Growth inhibition of Rhizoctonia solani AG-1 IA at 10 ug/ml after 24 hr
[3] = test system: Rhizoctonia solani; assay: Growth inhibition of Rhizoctonia solani AG-1 IA at 50 ug/ml after 24 hr
[4] = test system: Rhizoctonia solani; assay: Growth inhibition of Rhizoctonia solani AG-1 IA at 100 ug/ml after 24 hr
[5] = test system: Rhizoctonia solani; assay: Growth inhibition of Rhizoctonia solani AG-1 IA at 200 ug/ml after 24 hr
[6] = test system: Rhizoctonia solani; assay: Growth inhibition of Rhizoctonia solani AG-1 IA at 1 ug/ml after 24 hr

Row | Structure (SMILES) | inhibition of growth at 25 µg/mL [1] [%] | inhibition of growth at 10 µg/mL [2] [%] | inhibition of growth at 50 µg/mL [3] [%] | inhibition of growth at 100 µg/mL [4] [%] | inhibition of growth at 200 µg/mL [5] [%] | inhibition of growth at 1 µg/mL [6] [%]
1 | OCC1=C[C@H](N[C@H]2C[C@H](CO)[C@@H](O[C@@H]3O[C@H](CO)[C@@H](O)[C@H](O)[C@H]3O)[C@H](O)[C@H]2O)[C@H](O)[C@@H](O)[C@@H]1O [VALIDAMYCIN] | 17 | 5.7 | 22.6 | 34 | 45.2 | –
2 | CC(C)=C[C@H]1C[C@H](C)[C@]2(CC[C@]3(C)C[C@H]4[C@H](C(=O)C[C@@]4(C)O)/C(C=O)=C\C[C@H]32)O1 [OPHIOBOLIN A] | 100 | 85.9 | 100 | – | – | 70.2
